Laboratory results from a melting point compilation (Tetko et al.; mined from patent text by program, amines drawn as free bases though some values may be those of a salt).

First: CN(C)c1ccc(NC(=O)N(C[C@H]2CCC[C@H](CN(C(=O)Nc3ccc(N(C)C)cc3)C3CCCCC3)C2)C2CCCCC2)cc1 (relative stereo)
Second: CN(C)C(=O)c1ccc(Nc2nc(OCC3CCCCC3)c3nc[nH]c3n2)cc1
The melting point of the first is lower: 145 to 146 °C for the first, 184 to 186 °C for the second.

First: Cc1c(C(F)(F)F)ncn(-c2cc([N+](=O)[O-])c(F)cc2F)c1=O
Second: O=C(NN1CCCCC1)c1cc(Oc2c(F)cc(C(F)(F)F)cc2Cl)ccc1[N+](=O)[O-]
The melting point of the first is higher: 157 °C for the first, 65 to 68 °C for the second.

First: NC(CCN1CCC(O)(Cc2ccccc2)CC1)C(=O)c1ccccc1 (stereo unspecified)
Second: CC(C)c1ccc(C(=O)C2CCN(Cc3ccccc3)CC2)cc1
The melting point of the first is higher: 123 to 124 °C for the first, 76 to 77 °C for the second.

First: C#CC1C2=C(c3ccc(OCc4ccccc4[N+](=O)[O-])cc3N1C(=O)Oc1ccccc1)C(O[Si](C)(C)C(C)(C)C)CCC2 (stereo unspecified)
Second: O[C@H]1c2cc(OCc3ccc4cc(F)ccc4n3)ccc2OC[C@H]1Oc1cccnc1
The melting point of the first is higher: 188 to 190 °C for the first, 163 to 164 °C for the second.

Compared with `CCc1c(Sc2cc(C)cc(C)c2)n(C/C=C/CO)c(=O)[nH]c1=O`, `Cc1cc(C)c2[nH]c(C(=O)O)cc2c1` is higher in melting point: 157 to 158 °C for the first, 254 to 256 °C for the second.

Compared with `O=C(O)c1ccc(COc2ccc3cc(-c4ccc(-c5ccccc5)[nH]4)ccc3c2)c(C(=O)O)c1`, `CN(Cc1ccccc1)Cc1c(-c2ccc(NC(=O)C(C)(C)O)cc2)sc2c1c(=O)c(C(=O)c1ccccc1)cn2Cc1c(F)cccc1F` is lower in melting point: 289 to 291 °C for the first, 222 to 223 °C for the second.

First: Cc1c(CO)cccc1NC(=O)CN1C[C@@H](C)N(c2ncnc3sccc23)[C@@H](C)C1
Second: CCc1cccc(C(=O)NN(C(=O)c2cc(C)cc(C)c2)C(C)(C)C)c1C
The melting point of the first is higher: 203 to 204 °C for the first, 167 to 169 °C for the second.

First: CSC(=NCCSCc1ncccc1O)NC#N
Second: Cc1[nH]cnc1CSCCN=C(N)N
The melting point of the first is higher: 192 to 194 °C for the first, 141 to 142 °C for the second.

First: Cn1c(=O)cc(CN2CCC(c3c[nH]c4ccccc34)CC2)c2ccccc21
Second: Cc1cnc(C2(CCCCN3CCC(N4Cc5ccccc5C4=O)CC3)c3ccccc3-c3ccccc32)s1
The melting point of the first is higher: 228 to 229 °C for the first, 146 to 148 °C for the second.

Compared with `CCOCc1nc2c(N)nc3cc(OCc4ccccc4)ccc3c2n1CC(C)(C)NS(C)(=O)=O`, `COc1cc2nc(-c3ccccn3)nc(N)c2cc1OC` is lower in melting point: 264 to 266 °C for the first, 248 to 251 °C for the second.

Compared with `CC(=O)N(C)C(Cc1ccccc1N)c1ccc(C)s1` (stereo unspecified), `COC(=O)CN(c1ccccc1)c1ccc(OC)cc1C(=O)OC` is lower in melting point: 144 to 145 °C for the first, 85 to 87 °C for the second.

First: Cc1nc2cccc3n(CC4CCN(S(=O)(=O)C(F)(F)F)CC4)c(=O)c1n23
Second: Cc1noc(C)c1S(=O)(=O)n1c(=O)oc2ccccc21
The melting point of the first is higher: 150 to 152 °C for the first, 133 to 135 °C for the second.

Compared with `CN(C)CCC(=O)Nc1ccc2c(=O)c3ccc(NC(=O)CCN(C)C)cc3[nH]c2c1`, `Cc1ccc(C)n1CCNC(=O)Nc1ccc(C(=O)O)cc1` is lower in melting point: > 320 °C for the first, 248 to 250 °C for the second.

Compared with `COCCNc1c(N)cc(C(=O)O)cc1S(N)(=O)=O`, `COCCCN1CC[C@@H](CNC(=O)c2cc(Cl)cc3c2OCCO3)[C@H](O)C1` is lower in melting point: 209 to 211 °C for the first, 110 °C for the second.

First: COC(=O)c1ccc(CNC(C)=O)cc1S(=O)(=O)NC(=O)Nc1nc(OC)cc(OC)n1
Second: COC(=O)C(=O)c1cn2c3c(cccc13)C(OC(C)=O)CC2 (stereo unspecified)
The melting point of the first is lower: 149 to 150 °C for the first, 165 to 168 °C for the second.

Compared with `Brc1ccc2c(c1)C(c1ccccn1)=CCc1nncn1-2`, `CCSc1ccc(-c2ccccn2)c2c1C(=O)CC(C)C2` (stereo unspecified) is lower in melting point: 219 °C for the first, 120 to 122 °C for the second.

Compared with `Cc1cccc(-c2[nH]c(C(C)C)nc2-c2cccc(-c3ccc(NS(C)(=O)=O)cc3F)c2)n1`, `CC(c1ccc(F)c(F)c1)n1ncc(-c2ccc(S(N)(=O)=O)cc2)c(-c2ccc(F)cc2)c1=O` (stereo unspecified) is higher in melting point: 179 to 184 °C for the first, 214 to 215 °C for the second.

Compared with `NC(=O)NC(=O)c1ccccn1`, `CSCC[C@H](N)C(=O)NC(=O)C(CS)Cc1ccccc1` (stereo partly specified) is lower in melting point: 183 to 185 °C for the first, 153 to 156 °C for the second.

First: O=Cc1c(O)c(O)cc2ccccc12
Second: COc1c(O)ccc(C(=O)c2ccccc2)c1Cl
The melting point of the first is higher: 132 to 133 °C for the first, 123 to 125 °C for the second.

Compared with `C[C@]1(COc2ccc(N3CCC(OCc4ccc(C(F)(F)F)cc4)CC3)cc2)Cn2cc([N+](=O)[O-])nc2O1`, `O=C(O)c1cccc(-c2cc(-c3ccc(C(F)(F)F)cc3)no2)c1` is higher in melting point: 217 to 220 °C for the first, 272 to 273 °C for the second.

Compared with `c1ccc(Cc2ncc(-c3cnc(-c4ccccc4)nc3)[nH]2)cc1`, `Cc1nc(NC(=O)CCc2ccccc2)sc1C(=O)NCc1ccccc1` is lower in melting point: 235 °C for the first, 63 to 65 °C for the second.

First: CCOC(=O)c1cc(/C=C/c2ccc3ccccc3n2)cn1C
Second: CCOC(=O)c1nn(-c2ccc(OC(F)F)cc2)c2cccc(Cl)c2c1=O
The melting point of the first is higher: 140 to 142 °C for the first, 134 °C for the second.

First: CC1(C)Oc2ccc(C#N)cc2[C@@H](NC(=O)NC(=O)C(Cl)(Cl)Cl)[C@@H]1O (relative stereo)
Second: CCOCC(=O)SSc1ccc([N+](=O)[O-])cc1C(Cl)(Cl)Cl
The melting point of the first is higher: 231 to 233 °C for the first, 89 °C for the second.

First: CCOC(=O)COc1ccc(Cc2ccc(O)cc2)c(Cl)c1Cl
Second: Nc1ccc(Cl)cc1C(=O)c1ccc(O)cc1
The melting point of the first is lower: 102 to 103 °C for the first, 170 to 175 °C for the second.

First: O=c1cc(-c2ccccc2)oc(N2CCOCC2)c1
Second: CC(O)(CCN1CCOCC1)c1ccc(-c2ccc(Br)cc2)cc1 (stereo unspecified)
The melting point of the first is higher: 148 to 150 °C for the first, 97 to 99 °C for the second.

First: CCCCCCCCCCCCCCCC(=O)N[C@H]1CCCNC(=O)C1
Second: CCCCCCCCCCCCCCOc1cccc(CC(=O)OC)c1
The melting point of the first is higher: 99 to 100 °C for the first, 31 to 33 °C for the second.

First: COc1ncc(-c2ccncc2)cc1Br
Second: O=C(O)c1ccc(-c2nc(-c3ccncc3)cs2)cc1
The melting point of the first is lower: 136 to 138 °C for the first, > 300 °C for the second.

Compared with `CNC(=O)C(NC(=O)C(CC(C)C)C(S)CC(=O)OC)C(C)OCc1ccccc1` (stereo unspecified), `O=C(O)CCCNC(=O)c1cccc(NC(=O)c2ccccc2O)c1` is higher in melting point: 113 to 119 °C for the first, 172 to 174 °C for the second.

Compared with `CCSc1ccc(C(=O)O)nc1SCC`, `Cc1c(O)c(=O)ccn1CCO` is higher in melting point: 112 to 113 °C for the first, 164 to 165 °C for the second.

First: O=c1cnn(-c2cc(Cl)c(Cc3ccc(Cl)cc3)c(Cl)c2)c(=O)[nH]1
Second: Cc1nc2c(Cl)c(NC(=O)Cc3ccc(Cl)cc3)ccc2s1
The melting point of the first is lower: 175 to 176 °C for the first, 227 to 229 °C for the second.

First: CN(C)C(=O)n1nc(C(C)(C)C)cc1S(C)=O (stereo unspecified)
Second: Cc1cccc(C(=O)C(C)(C)C(C)(C)[N+](=O)[O-])c1
The melting point of the first is higher: 95 to 96 °C for the first, 50 to 51 °C for the second.

First: COc1ccc(OCC(=O)CS(=O)(=O)C(c2ccc(Cl)cc2)c2ccc(Cl)cc2)cc1
Second: COc1ccc(C2C(=O)c3ccc(OC)cc3C2=O)cc1 (stereo unspecified)
The melting point of the first is lower: 116 to 117 °C for the first, 163 °C for the second.

First: Oc1ccc(-c2[nH]c3ccccc3c2Cn2ccnc2)cc1
Second: NC(=O)c1[nH]c2ccccc2c1Sc1ccccc1
The melting point of the first is higher: 245 to 247 °C for the first, 197 to 198 °C for the second.

Compared with `CC1CCCN(C(=O)C2C(C)c3ccccc3N2c2ccc(Cl)nn2)C1` (stereo unspecified), `O=C1CCCc2c(Cl)cccc2-c2ccccc21` is lower in melting point: 169 to 171 °C for the first, 118 °C for the second.

First: COc1ccc2c(c1)c(Cc1cc(=O)n(C3CCCCCC3)[nH]1)c(C)n2C(=O)c1ccc(Cl)cc1
Second: COc1ccc(-n2nc(O)c3c(=O)c4ccc(Cl)cc4[nH]c3c2=O)cc1
The melting point of the first is lower: 145 to 148 °C for the first, 371 to 373 °C for the second.

Compared with `CCN1C(=O)Cc2ccc(OC(=O)CCl)cc21`, `CC(C(=O)O)c1ccc2c(c1)C(=O)Cc1cc([N+](=O)[O-])ccc1S2` (stereo unspecified) is higher in melting point: 114 to 116 °C for the first, 210 to 211 °C for the second.

Compared with `COc1cc(-c2cccs2)ccc1C(=O)C=Cc1ccc(F)c(F)c1`, `COC(=O)c1cc(-c2ccc(C(F)(F)F)cc2)oc1COC(C)=O` is lower in melting point: 73 to 79 °C for the first, 60 to 61 °C for the second.

Compared with `O=C1OCC(c2ccc([N+](=O)[O-])cc2)C1CSCc1ccccc1` (stereo unspecified), `O=C(Nc1c(Cl)cccc1Cl)C1c2ccccc2COc2ccc(Br)cc21` (stereo unspecified) is higher in melting point: 90 to 91 °C for the first, 185 to 187 °C for the second.

First: O=C(O)C1SCSCC12OCCO2 (stereo unspecified)
Second: COC(=O)C1(Cl)CCC(=O)O1 (stereo unspecified)
The melting point of the first is higher: 195 to 197 °C for the first, 50.5 to 51 °C for the second.

First: Nc1nc2c(Cc3cccnc3)c[nH]c2c(=O)[nH]1
Second: Nc1c(-c2c[nH]nn2)c(=O)oc2ccccc12
The melting point of the first is higher: > 300 °C for the first, 265 to 268 °C for the second.

Compared with `CCCCCCCC(=O)NCCCCCCOS(C)(=O)=O`, `CCOC(=O)CCCSc1nccc(NC(N)=NCC(F)(F)F)n1` is higher in melting point: 62 to 63 °C for the first, 120 to 122 °C for the second.

Compared with `Cc1cc(NCc2ccccc2)c(N)c(Cl)n1`, `COc1c2nc3ccccc3sc-2c(C)c(=O)c1OC` is lower in melting point: 177 to 178 °C for the first, 138 °C for the second.

First: COc1nc(N)nc2c1ncn2[C@@H]1O[C@H](CO)[C@@H](O)[C@@]1(C)F
Second: Cc1nc2cc(NC(=O)c3cc4cccnc4n3Cc3ccncc3)ccc2n1C
The melting point of the first is lower: 199 to 202 °C for the first, 236 to 246 °C for the second.

Compared with `NCC1Cc2cc(C(F)(F)F)cc(-c3ccoc3)c2O1` (stereo unspecified), `N#Cc1nn(-c2c(Cl)cc(C(F)(F)F)cc2Cl)c(N)c1C#N` is lower in melting point: > 250 °C for the first, 221 to 222 °C for the second.

Compared with `CC(C)(C)c1cc(SCc2ccc(C#N)cc2)cc(C(C)(C)C)c1O`, `COc1cc(C#N)ccc1OCCCN1CCC(c2noc3cc(F)ccc23)CC1` is lower in melting point: 143 to 145 °C for the first, 107 to 108 °C for the second.

First: Cc1nn(C)c2c1N(C(=O)CN(C)C)c1ccccc1NC2=O
Second: COc1cccc2c1C(=O)N(C)CC(=O)N2
The melting point of the first is lower: 178 to 179 °C for the first, 208 to 210 °C for the second.

First: COC(=O)N(C)C1CN(C(=O)Nc2ccc(OC(F)(F)F)cc2)NC1c1ccc(Cl)cc1 (stereo unspecified)
Second: O=C(O)COc1ccc(SCc2ccccc2OCc2ccc(C(F)(F)F)cc2)c2c1CCC2
The melting point of the first is higher: 179 to 181 °C for the first, 150 to 152 °C for the second.

First: COC(=O)C(=C(/C)c1ccc(OC2CCCC2)c(OC)c1)/C(=C\c1ccccc1)C(N)=O
Second: Cc1cc2c(-c3ccccc3)c(CNC(=O)c3cc4ccccc4[nH]3)n(C)c(=O)c2cc1C
The melting point of the first is lower: 133 to 134 °C for the first, 303 to 305 °C for the second.

First: CCOC(=O)CC(C#N)(CC(=O)OCC)c1ccc(OC)cc1
Second: Cc1ccc(C(=O)COC(=O)NC(C)C)cc1
The melting point of the first is lower: 65 to 75 °C for the first, 130 to 133 °C for the second.

First: Cc1ccc(F)cc1C1CC(=O)c2c(C)ccnc2C1 (stereo unspecified)
Second: CS(=O)c1ccc(-c2nn(Cc3cccnc3)c(=O)cc2-c2ccc(Cl)cc2)cc1 (stereo unspecified)
The melting point of the first is lower: 113 to 114 °C for the first, 155 °C for the second.

`O=C1C(=C2CC=Cc3ccccc32)CCCC1=C1CC=Cc2ccccc21` showed a melting point of 212 to 213 °C.
